Holding throughout (type): cell-based
Data set [1] deals with HIV1 modified pNL4-3.Luc.R-E-virus. The data set is described as follows: Luciferase luminescence of CEM T cells infected with HIV1 modified pNL4-3.Luc.R-E-virus. The conditions noted are these: CEM T cells pretreated before infection; vs untreated and DMSO; FIG. 2. Also noted: dose or concentration left out as unconfirmed. An excerpt: The expression of the protein assessed may be native, i.e. naturally occurring within the genome of the virus to be treated. In combination or the alternative, expression of a protein introduced to the viral genome may be assessed. Assessing the expression of an introduced protein may enable an assessment of viral proliferation by means not normally permitted by the native viral genome. For example, proliferation of the HIV1 virus can be assessed using luminescence with the HIV1 modified pNL4-3.Luc.R-E-virus. […] Accordingly, proliferation of the HIV1 modified pNL4-3.Luc.R-E-virus will entail production of the luciferase protein. […]
Accordingly, compounds in accordance with General Formula 1, including derivatives in accordance with General Formulae 1-1 to 1-20, or pharmaceutically acceptable salts thereof, can be assessed for the ability to inhibit proliferation of the HIV1 by infecting CEM T cells with the HIV1 modified pNL4-3.Luc.R-E-virus. […]
Prior to infection with the HIV1 modified pNL4-3.Luc.R-E-virus, the CEM T cells were pretreated with either SD-29 or DMSO ([…]) or left untreated. […] To assess luminescence, 100 μL of the cell suspension and […] of reconstituted luciferase buffer (Luclite Kit, Perkin Elmer) were added to wells and allowed to incubate for 10 minutes. […]

Another data set deals with CEM T cells. The data set can be described thus: Percent of viable CEM T cells after infection. The settings on record: CEM T cells after infection with HIV1 modified pNL4-3.Luc.R-E-virus; FIG. 3. An excerpt: It is possible that the diminished expression of a protein within the genome of a virus containing an IRES sequence may have been brought about by the compound inhibiting the ability infected cells to survive. If the compound or salt diminishes viability or is otherwise toxic to the cell, then diminished expression of a protein within the genome of a virus containing an IRES sequence may be the result of infected cells dying before sufficient levels of the protein can be expressed. Determining if diminished expression of a protein is the result of cell death or other toxic effects of the compound or salt may be accomplished by assessing the viability of cells after administration of the compound or salt. Accordingly, in some embodiments of assessing the ability of a compound in accordance with General Formula 1, including derivatives in accordance with any of General Formulae 1-1 to 1-20, or pharmaceutically acceptable salts thereof, to inhibit the expression of at least a portion of a virus genome containing an IRES sequence, the compound or salt may be assessed for its ability to preserve viability of cells following administration. […]

The target in the next data set is T1, RACK-1 (Homo sapiens, UniProt P63244).
T1 construct: endogenous in cells; host or cells: Hep-2 cells infected with HSV-1
The data set can be described thus: Western assay of RACK-1 expression in HSV-1 infected Hep-2 cells. The conditions noted are these: 100 μM, 24 hours pretreatment, twenty hours after infection, FIG. 6. The method, then: FIG. 6 is a Western assay showing expression of RACK-1, the IE protein ICP0, DE protein ICP8 and the L protein gD following infection of Hep-2 cells at varying multiplicity of infection (MOI) of HSV-1. In FIG. 6, ICP0 designates immediate early viral protein, ICP8 designates early viral protein, and dD designates late viral protein. Tubulin was used as a sample loading control. Prior to infection, Hep-2 cells were treated with DSMO as a control, 100 μM SD-29 or 100 μM SD29-12. After 24 hours of pretreatment, the Hep-2 cells were infected with HSV-1 at either 0.01, 0.05, 0.25 or 1.25 MOI (from 0.01 to 1.25). Twenty hours after infection, whole cell lysate samples were obtained and the Western assay shown in FIG. 6 was performed to examine protein levels.

A further data set relates to HSV-1. The data set can be described thus: qPCR of ICP-0 mRNA in HSV-1 infected Hep-2 cells. The conditions noted are these: 100 μM, 24 hours pretreatment, 0, 6, 12 and 24 hours after infection, vs DMSO, FIG. 8. An excerpt: The inhibition of triggered expression of at least a portion of the HSV-1 genome and the inhibited proliferation of HSV-1, which may be the result of the former, indicate that compounds in accordance with General Formula 1, including derivatives in accordance with any of General Formulae 1-1 to 1-20, can treat viral infections. The treatment provided by compounds in accordance with General Formula 1, including derivatives in accordance with any of General Formulae 1-1 to 1-20, may be the result of either inhibition of transcription of viral mRNAs containing an IRES or the inhibited expression of viral proteins encoded by such within the IRES reading frame of such an mRNA. Determining whether mRNA transcription or protein expression is being inhibited can be accomplished by assessing the amount of mRNA containing an IRES is diminished by treatment with a compound in accordance with General Formula 1, including derivatives in accordance with any of General Formulae 1-1 to 1-20. FIG. 8 reports the amount of mRNA of the IE gene ICP-0 detected in Hep-2 cells following treatment with SD-29.
Hep-2 cells were pretreated with either DSMO as a control, 100 μM SD-29 or 100 μM SD29-12. After 24 hours of pretreatment, the Hep-2 cells were infected with HSV-1. At 0, 6, 12 and 24 hours after infection, the total RNA within the cells was isolated. […]
In general terms: In qPCR the cycle at which signal appears reflects the starting amount.

As for `Nn1c(S)nnc1-c1ccc(F)cc1` [SD-29], the “luminescence / proliferation of the HIV1 modified pNL4-3.Luc.R-E-virus” value in data set [1] is recorded as “significantly reduced proliferation”. Also, the “viability of the infected cells” value with CEM T cells is on record as “did not decrease viability”. On RACK-1, the “expression of RACK-1” value was “reduced expression of RACK-1”. Further, in the data set with HSV-1, the “ICP-0 mRNA level / transcription of IE genes” value is “does not inhibit transcription of mRNA corresponding to IE genes”.

Values taken from patent publication US11576901B2, “Methods for treating viral infection” (HOWARD UNIVERSITY, priority 2016, dated 2023).
